In US12134620B2 (ARAXES PHARMA LLC, priority 2018, dated 2024) one finds Binding % data, which are given here for 17 molecules.

The structures appear in SMILES notation.

The target of the assay is T1, KRAS G12C 1-169, his-tagged protein, GDP-loaded (Homo sapiens, UniProt P01116, G12C).
T1 construct: KRAS G12C 1-169, his-tagged protein, GDP-loaded; His tag
In words: Biochemical assay: covalent modification of KRAS G12C, analysed by mass spectrometry (RapidFire/TOF or Q-Exactive). Also: time not given here. It counts as binding. The settings on record: Modification activity, modification percentage from MS peak intensities. Summed up: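 GDP-loaded His-tagged KRAS G12C 1-169 (2 μM or 0.5 μM in 20 mM Hepes, 150 mM NaCl, 1 mM MgCl2) reacted with compound at 32 μM or 8 μM final (2% DMSO) for a set time, then quenched with formic acid. Percent covalent modification from deconvoluted intact-protein MS peak intensities (RapidFire/TOF or LC-Q Exactive).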
Regarding `C=CC(=O)N1CC2(CCN(c3nc(OC[C@@H]4CCCN4C)nc(-c4ccccc4-c4cn[nH]c4)c3C#N)C2)C1` [Compound I-107, (S)-4-(2-(1H-pyrazol-4-yl)phenyl)-6-(2-acryloyl-2,6-diazaspiro[3.4]octan-6-yl)-2-((1-methylpyrrolidin-2-yl)methoxy)pyrimidine-5-carbonitrile], the Binding % entry was “+ (+ indicates binding activity greater than 0% and up to 50%)”. As for `C=CC(=O)N1CC2(CCN(c3nc(OC[C@@H]4CCCN4C)nc(-c4c(C)ccc5[nH]nc(N)c45)c3C#N)C2)C1` [Compound I-108, 4-(2-acryloyl-2,6-diazaspiro[3.4]octan-6-yl)-6-(3-amino-5-methyl-1H-indazol-4-yl)-2-(((S)-1-methylpyrrolidin-2-yl)methoxy)pyrimidine-5-carbonitrile], the Binding % result is listed as “++ (++ indicates binding activity from 50 to 85%)”.

Consider `C=CC(=O)N1CC2(CCN(c3nc(N4CCOC(c5ccccc5)C4)nc(-c4c(C)ccc5[nH]ncc45)c3C#N)C2)C1` (centres unmarked) [Compound I-109, 4-(2-acryloyl-2,6-diazaspiro[3.4]octan-6-yl)-6-(5-methyl-1H-indazol-4-yl)-2-(2-phenylmorpholino)py-rimidine-5-carbonitrile], for which the Binding % result was “++ (++ indicates binding activity from 50 to 85%)”.

Consider `C=CC(=O)N1CC2(CCN(c3nc(N4CCCC(N(C)C)C4)nc(-c4c(C)ccc5[nH]ncc45)c3C#N)C2)C1` (centres unmarked) [Compound I-110, 4-(2-acryloyl-2,6-diazaspiro[3.4]octan-6-yl)-2-(3-(dimethylamino)piperi-din-1-yl)-6-(5-methyl-1H-indazol-4-yl)pyrimidine-5-carbonitrile], for which the Binding % entry is “+++ (+++ indicates binding activity greater than 85%)”. Turning to `C=CC(=O)N1CC2(CCN(c3nc(N4CCN(C)CC4=O)nc(-c4c(C)ccc5[nH]ncc45)c3C#N)C2)C1` [Compound I-111, 4-(2-acryloyl-2,6-diazaspiro[3.4]octan-6-yl)-6-(5-methyl-1H-indazol-4-yl)-2-(4-methyl-2-oxopiperazin-1-yl)pyrimidine-5-carbonitrile], the Binding % entry is “+ (+ indicates binding activity greater than 0% and up to 50%)”. Take `C=CC(=O)N1CC2(CCN(c3nc(N4CCC5(CC4)CN(C)C5)nc(-c4c(C)ccc5[nH]ncc45)c3C#N)C2)C1` [Compound I-112, 4-(2-acryloyl-2,6-diazaspiro[3.4]octan-6-yl)-6-(5-methyl-1H-indazol-4-yl)-2-(2-methyl-2,7-diazaspiro[3.5]nonan-7-yl)pyrimidine-5-carbonitrile]: the Binding % result was “+++ (+++ indicates binding activity greater than 85%)”.

Take `C=CC(=O)N1CC2(CCN(c3nc(OCc4ccccn4)nc(-c4cccc5ccccc45)c3C#N)C2)C1` [Compound I-113, 4-(2-acryloyl-2,6-diazaspiro[3.4]octan-6-yl)-6-(naphthalen-1-yl)-2-(pyridin-2-ylmethoxy)pyrimidine-5-carbonitrile]: the Binding % entry was “+ (+ indicates binding activity greater than 0% and up to 50%)”. The same measure for `C=CC(=O)N1CC2(CCN(c3nc(OCc4ccccn4)nc(-c4cc(O)cc5ccccc45)c3C#N)C2)C1` [Compound I-114, 4-(2-acryloyl-2,6-diazaspiro[3.4]octan-6-yl)-6-(3-hydroxynaphthalen-1-yl)-2-(pyridin-2-ylmethoxy)pyrimidine-5-carbonitrile]: “+++ (+++ indicates binding activity greater than 85%)”; for `C=CC(=O)N1CC2(CCN(c3nc(OC[C@@H]4CCCN4C)nc(-c4cc(-c5cn[nH]c5)ccc4F)c3C#N)C2)C1` [Compound I-115, (S)-4-(2-acryloyl-2,6-diazaspiro[3.4]octan-6-yl)-6-(2-fluoro-5-(1H-pyrazol-4-yl)phenyl)-2-((1-methylpyrrolidin-2-yl)methoxy)pyrimidine-5-carbonitrile]: “+ (+ indicates binding activity greater than 0% and up to 50%)”; for `C=CC(=O)N1CC2(CCN(c3nc(OC[C@H]4CCN(C)C4)nc(-c4c(C)ccc5[nH]ncc45)c3C#N)C2)C1` [Compound I-116, 4-(2-acryloyl-2,6-diazaspiro[3.4]octan-6-yl)-6-(5-methyl-1H-indazol-4-yl)-2-(((S)-1-methylpyrrolidin-3-yl)methoxy)pyrimidine-5-carbonitrile]: “++ (++ indicates binding activity from 50 to 85%)”. Regarding `C=CC(=O)N1CC2(CCN(c3nc(OC[C@@H]4COCCN4C)nc(-c4c(C)ccc5[nH]ncc45)c3C#N)C2)C1` [Compound I-117, 4-(2-acryloyl-2,6-diazaspiro[3.4]octan-6-yl)-6-(5-methyl-1H-indazol-4-yl)-2-(((S)-4-methylmorpholin-3-yl)methoxy)pyrimidine-5-carbonitrile], the Binding % entry was “++ (++ indicates binding activity from 50 to 85%)”. The same measure for `C=CC(=O)N1CC2(CCN(c3nc(N4CCOCC4)nc(-c4c(C)ccc5[nH]ncc45)c3F)C2)C1` [Compound I-118, 1-(6-(5-fluoro-6-(5-methyl-1H-indazol-4-yl)-2-morpholinopyrimidin-4-yl)-2,6-diazaspiro[3.4]octan-2-yl)prop-2-en-1-one]: “++ (++ indicates binding activity from 50 to 85%)”.

As to `C=CC(=O)N1CC2(CCN(c3nc(N4CCOCC4)nc(-c4c(F)ccc5cnn(C)c45)c3C#N)C2)C1` [Compound I-119, 4-(2-acryloyl-2,6-diazaspiro[3.4]octan-6-yl)-6-(6-fluoro-1-methyl-1H-indazol-7-yl)-2-morpholinopyrimidine-5-carbontrile], the Binding % entry is on record as “++ (++ indicates binding activity from 50 to 85%)”. Regarding `C=CC(=O)N1CC2(CCN(c3nc(N4CCOCC4)nc(-c4c(F)ccc5cnn(C6CC6)c45)c3C#N)C2)C1` [Compound I-120, 4-(2-acryloyl-2,6-diazaspiro[3.4]octan-6-yl)-6-(1-cyclopropyl-6-fluoro-1H-indazol-7-yl)-2-morpholinopyrimidine-5-carbonitrile], the Binding % result is on record as “+++ (+++ indicates binding activity greater than 85%)”. Regarding `C=CC(=O)N1CC2(CCN(c3nc(N4CCOCC4)nc(-c4c(C)ccc5[nH]ncc45)c3OC)C2)C1` [Compound I-121, 1-(6-(5-methoxy-6-(5-methyl-1H-indazol-4-yl)-2-morpholinopyrimidin-4-yl)-2,6-diazaspiro[3.4]octan-2-yl)prop-2-en-1-one], the Binding % entry is listed as “++ (++ indicates binding activity from 50 to 85%)”. With `C=CC(=O)N1CC2(CCN(c3nc(N4CCCC(O)C4)nc(-c4c(C)ccc5[nH]ncc45)c3C#N)C2)C1` (centres unmarked) [Compound I-122, 4-(2-acryloyl-2,6-diazaspiro[3.4]octan-6-yl)-2-(3-hydroxypiperidin-1-yl)-6-(5-methyl-1H-indazol-4-yl)pyrimidine-5-carbonitrile], the Binding % result is “++ (++ indicates binding activity from 50 to 85%)”. `C=CC(=O)N1CC2(CCN(c3nc(OCc4ccccn4)nc(-c4c(F)ccc5cnn(C)c45)c3C#N)C2)C1` [Compound I-123, 4-(2-acryloyl-2,6-diazaspiro[3.4]octan-6-yl)-6-(6-fluoro-1-methyl-1H-indazol-7-yl)-2-(pyridin-2-ylmethoxy)pyrimidine-5-carbonitrile]: the Binding % entry is “+ (+ indicates binding activity greater than 0% and up to 50%)”.
